Assay results as given in PubChem BioAssay AID2260 (Sanford-Burnham Center for Chemical Genomics, 2010).
Activity calls are given as the source filed them. No rule for the calls is given here.

These compounds were tested on MCF-7/NOD2 cells, MDP-induced IL-8 secretion (assay: inhibition of NOD2-driven IL-8 release, SAR follow-up, MCF-7/NOD2 cells, MDP stimulus (AID 2260)).

Structure (SMILES)	IC50
Nc1nc2ccccc2n1S(=O)(=O)c1ccc([N+](=O)[O-])cc1	> 5 µM (inactive)
COc1ccc(S(=O)(=O)n2c(N)nc3ccccc32)cc1	> 5 µM (inactive)
Cc1ccc(S(=O)(=O)n2c(N)nc3cc(C)c(C)cc32)cc1	> 5 µM (inactive)

Next, values leading:

IC50	Structure (SMILES)
> 5 µM (inactive)	Nc1nc2ccccc2n1S(=O)(=O)c1ccccc1
> 25 µM (inactive)	O=C(O)c1c(NC(=O)N2CCOCC2)sc2c1CCCC2
> 25 µM (inactive)	Cc1ccc(S(=O)(=O)n2c(N)nc3ccccc32)cc1
